Reference: US20150005288A1, “SUBSTITUTED PHENYLIMIDAZOPYRAZOLES AND USE THEREOF” (Bayer Intellectual Property GmbH, priority 2012, published 2015)
pIC50: −log10 of the molar value.

biological target: T1, intracellular domain of human Tie2 (GST fusion protein) (Homo sapiens, UniProt Q02763); assay: Tie2 kinase assay (Tie2-TR-FRET); format: biochemical; conditions: ATP concentration 1 mM, in some cases means of several independent determinations
T1 construct: intracellular domain of human Tie2 (amino acids 776-1124); made in house; host or cells: Baculovirus-infected insect cells (Hi5)
T1 sequence (Q02763 776-1124): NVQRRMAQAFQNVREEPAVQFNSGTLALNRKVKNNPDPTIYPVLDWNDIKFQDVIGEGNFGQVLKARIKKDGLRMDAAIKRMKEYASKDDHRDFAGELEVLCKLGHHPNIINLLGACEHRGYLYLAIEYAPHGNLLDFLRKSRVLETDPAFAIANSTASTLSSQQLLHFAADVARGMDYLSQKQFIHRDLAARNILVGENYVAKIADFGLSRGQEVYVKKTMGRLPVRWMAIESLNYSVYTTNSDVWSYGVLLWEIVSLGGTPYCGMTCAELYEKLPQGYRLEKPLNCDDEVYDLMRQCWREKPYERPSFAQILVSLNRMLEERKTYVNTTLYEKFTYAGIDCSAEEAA
Procedure: The Tie2-inhibitory activity of the substances according to the invention was determined with the aid of one of the Tie2-TR-FRET assays described in the sections below at an ATP concentration of 1 mM (TR-FRET=Time-Resolved Fluorescence Resonance Energy Transfer):
The enzyme used was a recombinant fusion protein of glutathione S-transferase (GST) and the intracellular domain of human Tie2 (amino acids 776-1124) which was expressed in Baculovirus-infected insect cells (Hi5) and was purified by affinity chromatography on glutathione-Sepharose. Alternatively, it is also possible to use commercially available GST-His6-Tie2 fusion protein (ProQinase GmbH, Freiburg im Breisgau, Germany). The substrate used for the kinase reaction was the biotinylated peptide biotin-Ahx-[…] (C-terminus in amide form) which is commercially available (for example from Biosyntan, Berlin, Germany).
For the assay, 50 nl of a 100-fold concentrated solution of the respective test substance in DMSO were pipetted into a black low-volume 384-well microtitre plate (Greiner Bio-One, Frickenhausen, Germany) 2 μl of a solution of the Tie2 fusion protein in assay buffer [50 mM HEPES/HCl pH 7, 10 mM MgCl2, 2.5 mM MnCl2, 1 mM dithiothreitol, 0.01% (v/v) Nonidet P-40, 0.1% (w/v) bovine serum albumin (BSA), 1× Complete EDTA-free protease inhibitor mixture (Roche)] were added, and the mixture was incubated for 15 min to allow pre-binding of the substance to the enzyme prior to the kinase reaction. The kinase reaction was then started by adding 3 μl of a solution of adenosine triphosphate (ATP, 1.67 mM→final concentration in 5 μl assay volume=1 mM) and substrate (1.67 μM→final concentration in 5 μl assay volume=1 μM) in assay buffer, and the resulting mixture was incubated for a reaction time of 60 min at 22° C. The concentration of the Tie2 fusion protein was adapted to the respective activity of the enzyme and adjusted such that the assay was carried out in the linear range. Typical concentrations were in the range of 30 ng/ml.
The reaction was stopped by addition of 5 μl of a solution of TR-FRET detection reagents [200 nM streptavidin-XL665 and 2 nM PT66-Eu chelate, a europium chelate-labelled anti-phosphotyrosine antibody (Perkin-Elmer); alternatively, it is also possible to use PT66-Tb cryptate (Cisbio Bioassays, Codolet, France)] in aqueous EDTA solution[90 mM EDTA, 0.28% (w/v) bovine serum albumin (BSA) in 50 mM HEPES pH 7.5]. The resulting mixture was incubated at 22° C. for 1 h to allow formation of the complex of the biotinylated phosphorylated substrate and the detection reagents. The amount of phosphorylated substrate was then determined by measuring the resonance energy transfer from PT66-Eu chelate to streptavidin-XL665. To this end, the fluorescence emissions at 620 nm and 665 nm after excitation at 350 nm were measured in a TR-FRET measuring instrument (for example Viewlux, Perkin-Elmer). The ratio of the emissions at 665 nm and at 620 nm was taken as a measure of the amount of phosphorylated substrate.
Usually, the test substance in question was tested on the same microtitre plate at […] different concentrations in the range from 20 μM to 0.073 nM (for example at 20 μM, 5.7 μM, 1.6 μM, 0.47 μM, 0.13 μM, 38 nM, 11 nM, 3.1 nM, 0.89 nM, 0.25 nM and 0.073 nM) in duplicate for each concentration. The dilution series were prepared prior to the assay at the stage of the 100-fold concentrated solution by serial dilution (the exact concentrations may vary depending on the pipettors used in each case). IC50 values were calculated using a 4-parameter fit, with the aid of inhouse software.
Table 1 below lists the IC50 values from this assay for individual working examples (in some cases as means of several independent individual determinations): […]

In order of falling pIC50:
1. Cc1ccc(NC(=O)c2cc(CN3CCN(C)CC3)cc(S(F)(F)(F)(F)F)c2)cc1-n1ccn2nc(-c3cccnc3)cc12 [Example 36, 3-[(4-Methylpiperazin-1-yl)methyl]-N-{4-methyl-3-[6-(pyridin-3-yl)-1H-imidazo[1,2-b]pyrazol-1-yl]phenyl}-5-(pentafluoro-λ^6-sulphanyl)benzamide]  9.52
2. Cc1cc(C)c(-n2ccn3nc(-c4cccnc4)cc23)cc1NC(=O)c1cccc(C(C)(C)C(F)(F)F)c1 [Example 139, N-{2,4-Dimethyl-5-[6-(pyridin-3-yl)-1H-imidazo[1,2-b]pyrazol-1-yl]phenyl}-3-(1,1,1-trifluoro-2-methylpropan-2-yl)benzamide]  9.30
3. Cc1cc(C)c(-n2ccn3nc(-c4cccnc4)cc23)cc1NC(=O)c1cccc(C2(C)COC2)c1 [Example 140, N-{2,4-Dimethyl-5-[6-(pyridin-3-yl)-1H-imidazo[1,2-b]pyrazol-1-yl]phenyl}-3-(3-methyloxetan-3-yl)benzamide]  9.30
4. Cc1ccc(NC(=O)c2cc(OCCN)cc(S(F)(F)(F)(F)F)c2)cc1-n1ccn2nc(-c3cccnc3)cc12 [Example 22, 3-(2-Aminoethoxy)-N-{4-methyl-3-[6-(pyridin-3-yl)-1H-imidazo[1,2-b]pyrazol-1-yl]phenyl}-5-(pentafluoro-λ^6-sulphanyl)benzamide]  9.22
5. Cc1cc(C(=O)Nc2cc(-n3ccn4nc(-c5cccnc5)cc34)c(C)cc2C)cc(S(F)(F)(F)(F)F)c1 [Example 111, N-{2,4-Dimethyl-5-[6-(pyridin-3-yl)-1H-imidazo[1,2-b]pyrazol-1-yl]phenyl}-3-methyl-5-(pentafluoro-λ^6-sulphanyl)benzamide]  9.15
6. Cc1ccc(NC(=O)c2cc(S(C)(=O)=O)cc(S(F)(F)(F)(F)F)c2)cc1-n1ccn2nc(-c3cncs3)cc12 [Example 176, 3-(Methylsulphonyl)-N-{4-methyl-3-[6-(1,3-thiazol-5-yl)-1H-imidazo[1,2-b]pyrazol-1-yl]phenyl}-5-(pentafluoro-λ^6-sulphanyl)benzamide]  9.10
7. Cc1cc(C)c(-n2ccn3nc(-c4cccnc4)cc23)cc1NC(=O)c1cccc(C(C)(C)F)c1 [Example 142, N-{2,4-Dimethyl-5-[6-(pyridin-3-yl)-1H-imidazo[1,2-b]pyrazol-1-yl]phenyl}-3-(2-fluoropropan-2-yl)benzamide]  9.05
8. Cc1ccc(NC(=O)c2cc(C(C)(C)O)cc(S(F)(F)(F)(F)F)c2)cc1-n1ccn2nc(-c3cccnc3)c(F)c12 [Example 160, N-{3-[7-Fluoro-6-(pyridin-3-yl)-1H-imidazo[1,2-b]pyrazol-1-yl]-4-methylphenyl}-3-(2-hydroxypropan-2-yl)-5-(pentafluoro-λ^6-sulphanyl)benzamide]  9.00
9. COc1cc(C(=O)Nc2ccc(C)c(-n3cc(C)n4nc(-c5cn[nH]c5)cc34)c2)cc(S(F)(F)(F)(F)F)c1 [Example 13, 3-Methoxy-N-{4-methyl-3-[3-methyl-6-(1H-pyrazol-4-yl)-1H-imidazo[1,2-b]pyrazol-1-yl]-phenyl}-5-(pentafluoro-λ^6-sulphanyl)benzamide]  8.89
10. Cc1cc(C)c(-n2ccn3nc(-c4cccnc4)cc23)cc1NC(=O)c1cc(C(=O)O)cc(S(F)(F)(F)(F)F)c1 [Example 110, 3-({2,4-Dimethyl-5-[6-(pyridin-3-yl)-1H-imidazo[1,2-b]pyrazol-1-yl]phenyl}carbamoyl)-5-(pentafluoro-λ^6-sulphanyl)benzoic acid]  8.30
11. Cc1ccc(NC(=O)c2cccc(S(F)(F)(F)(F)F)c2)cc1-n1ccn2nc(-c3cncs3)cc12 [Example 172, N-{4-Methyl-3-[6-(1,3-thiazol-5-yl)-1H-imidazo[1,2-b]pyrazol-1-yl]phenyl}-3-(pentafluoro-λ^6-sulphanyl)benzamide]  8.11
12. Cc1ccc(NC(=O)c2cc(C#N)cc(S(F)(F)(F)(F)F)c2)c(C)c1-n1ccn2nc(-c3cccnc3)cc12 [Example 121, 3-Cyano-N-{2,4-dimethyl-3-[6-(pyridin-3-yl)-1H-imidazo[1,2-b]pyrazol-1-yl]phenyl}-5-(pentafluoro-λ^6-sulphanyl)benzamide]  7.74
13. Cc1ccc(NC(=O)c2cc(C#N)cc(C3(O)CCC3)c2)cc1-n1ccn2nc(-c3cccnc3)cc12 [Example 92, 3-Cyano-5-(1-hydroxycyclobutyl)-N-{4-methyl-3-[6-(pyridin-3-yl)-1H-imidazo[1,2-b]pyrazol-1-yl]phenyl}benzamide]  7.54
14. Cc1cc(C)c(-n2ccn3nc(-c4cccnc4)cc23)cc1NC(=O)c1cccc(C(C)(C)O)c1 [Example 141, N-{2,4-Dimethyl-5-[6-(pyridin-3-yl)-1H-imidazo[1,2-b]pyrazol-1-yl]phenyl}-3-(2-hydroxypropan-2-yl)benzamide]  7.21
15. Cc1ccc(-n2ccn3nc(-c4cccnc4)cc23)cc1NC(=O)c1cccc(S(F)(F)(F)(F)F)c1 [Example 76, N-{2-Methyl-5-[6-(pyridin-3-yl)-1H-imidazo[1,2-b]pyrazol-1-yl]phenyl}-3-(pentafluoro-λ^6-sulphanyl)benzamide]  7.09
16. Cc1ccc(NC(=O)c2cccc(C(C)(C)C)c2)cc1-n1ccn2nc(-c3cn[nH]c3)cc12 [Example 7, 3-tert-Butyl-N-{4-methyl-3-[6-(1H-pyrazol-4-yl)-1H-imidazo[1,2-b]pyrazol-1-yl]phenyl}-benzamide]  6.98
17. O=C(Nc1ccc(F)c(-n2ccn3nc(-c4cccnc4)cc23)c1)c1cccc(S(F)(F)(F)(F)F)c1 [Example 70, N-{4-Fluoro-5-[6-(pyridin-3-yl)-1H-imidazo[1,2-b]pyrazol-1-yl]phenyl}-3-(pentafluoro-λ^6-sulphanyl)benzamide]  6.98
18. Cc1ccc(NC(=O)c2cccc(S(F)(F)(F)(F)F)c2)c(C)c1-n1ccn2nc(-c3cccnc3)cc12 [Example 119, N-{2,4-Dimethyl-3-[6-(pyridin-3-yl)-1H-imidazo[1,2-b]pyrazol-1-yl]phenyl}-3-(pentafluoro-λ^6-sulphanyl)benzamide]  6.96
19. Cc1ccc(S(F)(F)(F)(F)F)cc1C(=O)Nc1ccc(C)c(-n2ccn3nc(-c4cccnc4)cc23)c1 [Example 91, 2-Methyl-N-{4-methyl-3-[6-(pyridin-3-yl)-1H-imidazo[1,2-b]pyrazol-1-yl]phenyl}-5-(pentafluoro-λ^6-sulphanyl)benzamide]  6.67
20. Cc1cc(C(=O)Nc2ccc(C)c(-n3ccn4nc(-c5cccnc5)cc34)c2)cc(S(N)(=O)=O)c1 [Example 124, 3-Methyl-N-{4-methyl-3-[6-(pyridin-3-yl)-1H-imidazo[1,2-b]pyrazol-1-yl]phenyl}-5-sulphamoyl-benzamide]  6.53
21. N#Cc1cc(C(=O)Nc2cccc(-n3ccn4nc(-c5cccnc5)cc34)c2F)cc(S(F)(F)(F)(F)F)c1 [Example 81, 3-Cyano-N-{2-fluoro-3-[6-(pyridin-3-yl)-1H-imidazo[1,2-b]pyrazol-1-yl]phenyl}-5-(pentafluoro-λ^6-sulphanyl)benzamide]  6.36
22. CCOCCOc1cccc(C(=O)Nc2cc(-n3ccn4nc(-c5cccnc5)cc34)c(C)cc2C)c1 [Example 135, N-{2,4-Dimethyl-5-[6-(pyridin-3-yl)-1H-imidazo[1,2-b]pyrazol-1-yl]phenyl}-3-(2-ethoxyethoxy)-benzamide]  6.22
23. Cc1ccc(NC(=O)c2cc(N3CCCC3)ccc2Cl)cc1-n1ccn2nc(-c3cccnc3)cc12 [Example 57, 2-Chloro-N-{4-methyl-3-[6-(pyridin-3-yl)-1H-imidazo[1,2-b]pyrazol-1-yl]phenyl}-5-(pyrrolidin-1-yl)benzamide]  6.00
